Data as given in patent US20160287672A1, “METHOD OF TREATING CHRONIC HEART FAILURE BY ADMINISTERING RELAXIN” (priority 2008, published 2016).
Read-outs that look alike come from different tables or passages of the source.

What was measured:
[1] = test system: patients with chronic and stable compensated congestive HF; assay: Open-label pilot study of IV recombinant relaxin over 24 hours in chronic heart failure patients; type: in vivo, human; settings: for CI Change from baseline / CO Change from baseline / DBP Change from baseline / HR Change from baseline / PAP Change from baseline / PCWP Change from baseline / PVR Change from baseline / RAP Change from baseline / SBP Change from baseline / SVR Change from baseline: mean ± SD
Method: Overview. In this open-label study 16 patients with chronic and stable compensated congestive HF were enrolled in three dose-ascending cohorts of recombinant intravenous relaxin (10 to 960 mcg/kg/day) over 24 hours. Relaxin produced increases in cardiac index and stroke volume, and a decrease in pulmonary wedge pressure and NT-pro BNP. It improved markers of renal function, with a small rebound at the highest dose during post-infusion. […] A maximally tolerated dose was determined.
Design of Study. In this single-center, open-label study, 16 patients who fulfilled inclusion and but not exclusion criteria for chronic and stable compensated congestive HF were sequentially allocated to three ascending cohorts of intravenous (IV) relaxin. Main inclusion criteria included: Age >18 years; NYHA CHF Class II-III without restriction on etiology; left ventricular ejection fraction <35% within 6 months of enrollment; receiving established oral HF therapy expected to remain unchanged during the study period. Main exclusion criteria included: Wedge pressure <16 mmH or CI >2.5 L/min/m2; acute coronary syndrome (within 4 weeks) or recent myocardial infarction or cardiac surgery (within 6 months); AHF requiring intravenous therapy at baseline; systolic blood pressure <85 mmHg; uncorrected valvular heart disease, except for relative mitral and/or tricuspid valve insufficiency; obstructive or restrictive cardiomyopathy; recent episode of ventricular tachycardia or fibrillation (within 4 weeks); recent stroke (within 3 months); creatinine >2.0 mg/dl or serum transaminases and/or total bilirubin >2.5 times the upper limit of normal at screening visit; history of endometriosis.
The study drug was relaxin (produced by recombinant technology). Recombinant relaxin is identical to the native human hormone H2 relaxin. The dose escalation was as follows: Group A included sequential treatment for 8 hours each with dosages equivalent to 10, 30, and 100 mcg/kg/day. Group B included sequential treatment for 8 hours each with dosages equivalent to 240, 480, and 960 mcg/kg/day. Group C received 24 hours of treatment with 960 mcg/kg/day. Escalation from Group A to Group B was done after examining safety and tolerability of the doses used in Group A. Escalation from Group B to C occurred after the safety and tolerability of the highest dose in Group B (960 mcg/kg/day) was determined.
Patients were monitored in the intensive care unit for the infusion and post-infusion periods (24 hours either). Hemodynamic measurements, including CI, SVR, PCWP, SBP, RAP, and PVR, were serially performed using Swan-Ganz and arterial catheters. Likewise, clinical and laboratory monitoring was carried out serially throughout infusion and post-infusion and on Day 9 after beginning of infusion. An additional 30-day evaluation for serious adverse events was performed by phone. Endpoints included hemodynamic and neurohumoral (NT-pro BNP levels) changes from baseline, as well as monitoring of vital signs, electrocardiogram, serum chemistry, and hematology parameters throughout the study. For statistical analysis, an error probability of P<0.05 was regarded as significant. Baseline values were compared using the Kruskal-Wallis ANOVA on ranks followed by Dunn's test. Differences over time within the single groups (hemodynamics, renal parameter, and peptide levels) were analyzed with a Friedman Repeated Measures Analysis of Variance on Ranks followed by Dunn's test for comparison against the baseline.

[2] = test system: systemic sclerosis patients; assay: Clinical trials of relaxin by continuous subcutaneous infusion for six months in systemic sclerosis patients; type: in vivo, human; settings: continuous SQ infusion for six months
Description: Clinical trials with relaxin have also been conducted on systemic sclerosis patients. 257 human subjects who suffer from systemic sclerosis, a serious fibrotic disease, have been treated with relaxin by continuous and subcutaneous (SQ) infusion for six months. […] These findings support the hypothesis that relaxin administration was associated with balanced systemic and renal vasodilation.

[3] = test system: systemic sclerosis patients; settings: scleroderma patients (Seibold et al. 2000); cited from earlier work
[4] = test system: hypertensive and normotensive rats; settings: cited from earlier work
healthy volunteers = settings: cited from earlier work
[5] = Group C, 960 mcg/kg/d IV over 24 hours
[6] = Group C, 960 mcg/kg/d IV, 24 hr

## relaxin: Study drug produced by recombinant technology, identical to the native human hormone H2 relaxin; peptide hormone of A and B chains
[1]; Day 9, after doses equivalent to 960 mcg/kg/day IV
  creatinine increases post-infusion: ≤ 0.5 mg/dL
[1]; Group A, 10 mcg/kg/d IV, 8 hr
  CI Change from baseline: 0.08 ± 0.3 L/min/m2
  CO Change from baseline: 0.13 ± 0.5 L/min
  DBP Change from baseline: −3.0 ± 4.2 mmHg
  HR Change from baseline: 3.3 ± 7.6 beats/min
  PAP Change from baseline: −3.75 ± 4.1 mmHg
  PCWP Change from baseline: −1.8 ± 1.9 mmHg
  PVR Change from baseline: −17.3 ± 60.5 dynes * sec/cm5
  RAP Change from baseline: 0.8 ± 0.9 mmHg
  SBP Change from baseline: −12.5 ± 9.3 mmHg
  SVR Change from baseline: −143 ± 140 dynes * sec/cm5
[1]; Group A, 30 mcg/kg/d IV, 8 hr
  CI Change from baseline: 0.25 ± 0.4 L/min/m2
  CO Change from baseline: 0.45 ± 0.6 L/min
  DBP Change from baseline: 2.5 ± 10.9 mmHg
  HR Change from baseline: 2.3 ± 16.2 beats/min
  PAP Change from baseline: −4.0 ± 5.5 mmHg
  PCWP Change from baseline: −5.0 ± 2.6 mmHg
  PVR Change from baseline: −0.5 ± 56.7 dynes * sec/cm5
  RAP Change from baseline: −1.0 ± 1.8 mmHg
  SBP Change from baseline: −5.3 ± 16.8 mmHg
  SVR Change from baseline: −171 ± 159 dynes * sec/cm5
[1]; Group A, 100 mcg/kg/d IV, 8 hr
  CI Change from baseline: 0.25 ± 0.2 L/min/m2
  CO Change from baseline: 0.45 ± 0.2 L/min
  DBP Change from baseline: −5.0 ± 3.7 mmHg
  HR Change from baseline: 0.5 ± 1.3 beats/min
  PAP Change from baseline: −4.5 ± 4.2 mmHg
  PCWP Change from baseline: −3.5 ± 3.7 mmHg
  PVR Change from baseline: −25.3 ± 28.9 dynes * sec/cm5
  RAP Change from baseline: −0.8 ± 1.2 mmHg
  SBP Change from baseline: −13.0 ± 8.3 mmHg
  SVR Change from baseline: −288 ± 92 dynes * sec/cm5
[1]; Group B
  time course of NT-pro BNP: no change
[1]; Group B, 240 mcg/kg/d IV, 8 hr
  CI Change from baseline: 0.28 ± 0.2 L/min/m2
  CO Change from baseline: 0.62 ± 0.4 L/min
  DBP Change from baseline: 3.0 ± 6.0 mmHg
  HR Change from baseline: 1.7 ± 6.7 beats/min
  PAP Change from baseline: −1.7 ± 1.6 mmHg
  PCWP Change from baseline: −1.5 ± 1.9 mmHg
  PVR Change from baseline: −14.8 ± 16.9 dynes * sec/cm5
  RAP Change from baseline: 0.3 ± 1.4 mmHg
  SBP Change from baseline: −2.5 ± 7.4 mmHg
  SVR Change from baseline: −150 ± 138 dynes * sec/cm5
[1]; Group B, 480 mcg/kg/d IV, 8 hr
  CI Change from baseline: 0.17 ± 0.3 L/min/m2
  CO Change from baseline: 0.33 ± 0.7 L/min
  DBP Change from baseline: 0.0 ± 7.2 mmHg
  HR Change from baseline: −1.8 ± 4.5 beats/min
  PAP Change from baseline: 1.7 ± 2.7 mmHg
  PCWP Change from baseline: 0.33 ± 2.6 mmHg
  PVR Change from baseline: 5.5 ± 35.2 dynes * sec/cm5
  RAP Change from baseline: 0.5 ± 1.1 mmHg
  SBP Change from baseline: 2.2 ± 5.6 mmHg
  SVR Change from baseline: −12 ± 219 dynes * sec/cm5
[1]; Group B, 960 mcg/kg/d IV, 8 hr
  CI Change from baseline: 0.25 ± 0.3 L/min/m2
  CO Change from baseline: 0.48 ± 0.7 L/min
  DBP Change from baseline: −0.3 ± 6.8 mmHg
  HR Change from baseline: 1.8 ± 3.4 beats/min
  PAP Change from baseline: 0.3 ± 3.7 mmHg
  PCWP Change from baseline: −0.17 ± 2.7 mmHg
  PVR Change from baseline: 3.3 ± 27.5 dynes * sec/cm5
  RAP Change from baseline: 0.8 ± 1.2 mmHg
  SBP Change from baseline: −3.0 ± 5.1 mmHg
  SVR Change from baseline: −102 ± 248 dynes * sec/cm5
[1]; [5]
  absolute decreases in PCWP: approximately 4 mm Hg
  absolute increases of CI: up to 0.81 /min/m2
[1]; Group C, 960 mcg/kg/d IV, 8 hr
  CI Change from baseline: 0.43 ± 0.3 L/min/m2
  CO Change from baseline: 0.85 ± 0.5 L/min
  DBP Change from baseline: −4.8 ± 5.4 mmHg
  HR Change from baseline: 2.5 ± 4.3 beats/min
  PAP Change from baseline: −3.2 ± 3.1 mmHg
  PCWP Change from baseline: −2.5 ± 3.5 mmHg
  PVR Change from baseline: −58.5 ± 69.4 dynes * sec/cm5
  RAP Change from baseline: −1.2 ± 2.9 mmHg
  SBP Change from baseline: −1.3 ± 4.7 mmHg
  SVR Change from baseline: −255 ± 188 dynes * sec/cm5
[1]; [6]
  CI Change from baseline: 0.67 ± 0.15 L/min/m2
  CO Change from baseline: 1.25 ± 0.03 L/min
  DBP Change from baseline: −6.5 ± 7.5 mmHg
  HR Change from baseline: 0.67 ± 3.6 beats/min
  PAP Change from baseline: −5.0 ± 3.4 mmHg
  PCWP Change from baseline: −3.5 ± 3.0 mmHg
  PVR Change from baseline: −82.5 ± 55.5 dynes * sec/cm5
  RAP Change from baseline: −1.5 ± 2.7 mmHg
  SBP Change from baseline: −7.3 ± 9.5 mmHg
  SVR Change from baseline: −395 ± 217 dynes * sec/cm5
[1]; Group C, 960 mcg/kg/day IV
  drop of PVR: ~30%
[1]; Groups A and C
  time course of NT-pro BNP: significant declines
[1]; after doses equivalent to 960 mcg/kg/day IV, spontaneously resolved by Day 30
  creatinine and BUN post-infusion: increase on Day 9
[1]; all doses, 10-960 mcg/kg/day IV
  tolerability: well tolerated
[1]; all groups
  infusion-related adverse events: no infusion-related clinically significant adverse events
  symptomatic hypotension: no symptomatic hypotension was observed
[1]; all groups, 10-960 mcg/kg/d IV
  heart rate: did not change in any group
[1]; all groups, significant in groups A and C
  creatinine values during infusion: decreased
[1]; all treatment groups
  right atrial pressure: None of the treatment groups showed a significant decrease
[1]; in general, all groups
  alterations of SBP: significant alterations of SBP (FIG. 8) were not observed
[1]; throughout the study
  vital signs, ECG, serum chemistry, and hematology parameters: did not evoke any abnormalities
[1]; without physician supervision, chronic HF patients
  maximally tolerated dose (MTD) of IV relaxin: 240 to 480 µg/kg/day
[2]
  blood pressure: stable decreases in blood pressure
  predicted creatinine clearance: statistically significant increase
  serious hypotensive events: did not experience any serious hypotensive events
[3]
  predicted creatinine clearance: sustained amelioration
[4]
  CI: increase in CI
  SVR: decrease in SVR
  mean arterial pressure: without affecting mean arterial pressure
Healthy volunteers
  renal blood flow: increases renal blood flow
